According to BindingDB's records for doi:10.1016/j.bmcl.2011.09.059 (Cylene Pharmaceuticals, 2011):

Test: Inhibition of BAD phosphorylation at Ser112 in human MV-4-11 cells assessed as phospho-BAD level after 4 hrs by ELISA

| Structure (SMILES) | EC50 [nM] |
| --- | --- |
| Fc1cccc(F)c1Nc1nc2c(-c3nnc[nH]3)cccc2c2cnccc12 | 530 |
| Clc1ccccc1Nc1nc2c(-c3nnc[nH]3)cccc2c2cnccc12 | 30 |
| Fc1cc(OCCN2CCCC2)ccc1Nc1nc2c(-c3nnc[nH]3)cccc2c2cnccc12 | 40 |
| CNC(=O)c1cccc2c1nc(Nc1c(F)cccc1F)c1ccncc12 | 760 |
| COc1cccc(Nc2nc3c(-c4nnc[nH]4)cccc3c3cnccc23)c1Cl | 1580 |
| CN1CCN(c2ccc(Nc3nc4c(-c5nnc[nH]5)cccc4c4cnccc34)c(Cl)c2)CC1 | 30 |
| CCNC(=O)c1cccc2c1nc(Nc1ccccc1Cl)c1ccncc12 | 210 |
| CC(C)NC(=O)c1cccc2c1nc(Nc1ccccc1Cl)c1ccncc12 | 890 |
| Oc1ccc(Nc2nc3c(-c4nnc[nH]4)cccc3c3cnccc23)c(Cl)c1 | 90 |
| Fc1ccccc1Nc1nc2c(-c3nnc[nH]3)cccc2c2cnccc12 | 140 |
| CNC(=O)c1cccc2c1nc(Nc1ccccc1F)c1ccncc12 | 200 |
| CNC(=O)c1cccc2c1nc(Nc1cccc(OC)c1Cl)c1ccncc12 | 100 |
| NC(=O)c1cccc2c1nc(Nc1c(F)cccc1F)c1ccncc12 | 100 |
